# In patent US8158638B2, “Pyrazolopyrimidine derivative” (Daiichi Sankyo Company, Limited, priority 2006, dated 2012):
# pIC50: −log10 of the molar value. Like-named read-outs stand apart in the source and are kept apart here.
# Legend:
# [1] = test system: human breast cancer cell line SK-BR-3; experiment: Cell growth inhibition assay (MTT), SK-BR-3; format: cell-based; conditions: read-out: GI50 value (50% growth inhibitory concentration)
# Procedure: (§1) A cell growth inhibition assay was performed using two types of cells (human breast cancer cell line SK-BR-3 and human lung cancer cell line NCI-H460).
# (§2) Cells of each type were suspended in a medium and seeded into a 96-well multi-well plate at 500 cells/150 μl/well. The test compound was dissolved in DMSO, and this was diluted with medium to prepare a sample solution (DMSO concentration: 0.5% or less). On the day following the seeding, 50 μL of DMSO-containing medium to which the test compound was not added (hereinafter called DMSO diluted solution; DMSO concentration: 0.5% or less) or the sample solution was added to the cells. An MTT assay was performed immediately after and 72 hours after adding the sample solution or the DMSO diluted solution to the cells. The MTT assay was performed as follows.
# (§3) 5 mg/mL of an MTT (3-(4,5-dimethylthiazol-2-yl)-2,5-diphenyltetrazolium bromide) solution was added at 20 μL per well. Thereafter, the plate was incubated at 37° C. in 5% CO2 for four hours. The plate was centrifuged at 1200 rpm for five minutes, and then the culture supernatant was removed by suction using a dispenser. DMSO was added at 150 μL per well, and the generated formazan was dissolved. The plate was stirred using a plate mixer to uniformly color the respective wells. The absorbance of each well was measured using a plate reader at an OD of 540 nm with a reference of 660 nm.
# (§4) T/C (%) for each concentration was determined by the following calculation formula and a dose-response curve was drawn to calculate the 50% growth inhibitory concentration (GI50 value), based on the assumption that the OD value measured immediately after adding the sample solution was S, the OD value measured 72 hours after adding the sample solution was T, and the OD value measured 72 hours after adding the DMSO diluted solution was C. T/C(%)=(T−S)/(C−S)×100
# [2] = test system: human lung cancer cell line NCI-H460; experiment: Cell growth inhibition assay (MTT), NCI-H460; format: cell-based; conditions: read-out: GI50 value (50% growth inhibitory concentration)
# Procedure: as §1, §2, §3, §4
# [3] = target: T1, recombinant yeast Hsp90 protein (rHsp90) (Saccharomyces cerevisiae, UniProt P02829); experiment: Hsp90 ATPase assay; format: biochemical; conditions: rHsp90 100 μg/mL, ATP 100 μM, 37° C., two hours, BIOMOL GREEN; read-out: IC50 value (concentration for 50% inhibition of ATP activity)
# T1 construct: made in house; host or cells: Escherichia coli
# Procedure: An Hsp90 ATPase assay was performed using a recombinant yeast Hsp90 protein (hereinafter called rHsp90). Yeast Hsp90 DNA was cloned from a yeast genomic DNA library according to a conventional method. The cloned yeast Hsp90 DNA was incorporated into a plasmid for expression in Escherichia coli, and the plasmid was expressed in Escherichia coli to obtain rHsp90.
# The test compound was dissolved in DMSO to 10 mM. The dissolved solution was diluted with DMSO to eight concentrations ranging in three-fold dilutions from 4 mM. Each diluted solution was further 10-fold diluted with an assay buffer (100 mM Tris, pH 7.4, 20 mM KCl, 6 mM MgCl2) (concentration of each test compound solution: 400 μM, 133 μM, 44.4 μM, 14.8 μM, 4.94 μM, 1.65 μM, 0.549 μM, 0.183 μM; DMSO concentration: 10%).
# rHsp90 was dissolved in a TE buffer (20 mM Tris, pH 7.4, 1 mM EDTA) to a concentration of 2.531 mg/mL. The dissolved solution was diluted with assay buffer to 125 μg/mL and dispensed to a 96-well assay plate at 40 μL per well (final concentration: 100 μg/mL).
# The test compound solution was dispensed at 5 μL per well, and then the solutions in the respective wells were mixed using a plate mixer. 100 mM ATP (Sigma, Catalog No. A-7699) was diluted with assay buffer to 1 mM and dispensed at 5 μL per well (final concentration: 100 μM). The solutions in the respective wells were mixed using a plate mixer, and then the assay plate was allowed to stand in an incubator set at 37° C. for two hours.
# BIOMOL GREEN Reagent (BIOMOL, Catalog No. AK-111) was dispensed at 100 μL per well, and the reaction was terminated. The solutions in the respective wells were mixed by pipetting (three times), and then 34% sodium citrate was dispensed at 10 μL per well. The solutions in the respective wells were mixed by pipetting (three times), and then the assay plate was left to stand at room temperature for 10 minutes. The absorbance at 630 nm of each well was measured with a microplate reader.
# The ratio of the absorbance of the test compound-added group to the absorbance of the test compound-free group (T/C value) was determined by the following calculation formula, based on the assumption that the absorbance of the well to which the test compound and rHsp90 were added was A, the absorbance of the well to which only rHsp90 was added was B, and the absorbance of the well to which neither the test compound nor rHsp90 was added was C. T/C=(A−C)/(B−C)
# Further, the concentration for 50% inhibition of ATP activity (IC50 value) was calculated using GraphPad Prism 4 (GraphPad Software, Inc.).
# [4] = Homo sapiens, SK-BR-3, MTT assay, 72 hours
# [5] = Homo sapiens, NCI-H460, MTT assay, 72 hours
# T1 sequence (P02829 whole entry): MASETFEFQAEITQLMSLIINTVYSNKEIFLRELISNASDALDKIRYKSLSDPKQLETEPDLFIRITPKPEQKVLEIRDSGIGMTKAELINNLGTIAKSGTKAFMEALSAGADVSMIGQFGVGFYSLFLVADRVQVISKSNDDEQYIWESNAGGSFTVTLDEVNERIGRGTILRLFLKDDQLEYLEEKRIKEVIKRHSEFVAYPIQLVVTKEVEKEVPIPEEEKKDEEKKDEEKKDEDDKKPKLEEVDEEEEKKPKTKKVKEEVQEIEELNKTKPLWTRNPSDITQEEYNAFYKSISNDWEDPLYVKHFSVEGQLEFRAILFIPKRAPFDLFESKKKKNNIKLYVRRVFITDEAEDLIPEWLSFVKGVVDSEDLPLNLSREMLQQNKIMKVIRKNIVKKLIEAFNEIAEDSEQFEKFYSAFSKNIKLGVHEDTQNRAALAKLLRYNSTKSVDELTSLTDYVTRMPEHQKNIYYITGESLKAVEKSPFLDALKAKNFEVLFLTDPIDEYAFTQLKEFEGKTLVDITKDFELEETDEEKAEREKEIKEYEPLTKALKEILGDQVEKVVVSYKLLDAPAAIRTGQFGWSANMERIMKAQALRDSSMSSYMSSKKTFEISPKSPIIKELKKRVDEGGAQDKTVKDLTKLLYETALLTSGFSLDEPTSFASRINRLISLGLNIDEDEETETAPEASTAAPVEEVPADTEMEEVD
"GI50 [1, 4] [nM]","GI50 [2, 5] [nM]",pIC50 [3],Compound,"GI50 ([1]; Homo sapiens, SK-BR-3, 72 h) [nM]","GI50 ([2]; Homo sapiens, NCI-H460, 72 h) [nM]","GI50 ([1]; SK-BR-3, MTT assay, 72 hours) [nM]","GI50 ([2]; NCI-H460, MTT assay, 72 hours) [nM]"
37,89,5.96,"CNC(=O)CC1=Cc2nn(Cc3ncc(C)c(OC)c3C)c3nc(N)nc(c23)SC1 [Example 116, 2-{4-Amino-2-[(4-methoxy-3,5-dimethylpyridin-2-yl)methyl]-2,7-dihydro-6-thia-1,2,3,5-tetraazabenzo[cd]azulen-8-yl}-N-methylacetamide]",,,,
320,650,6.09,"COc1c(C)cnc(Cn2nc3c4c(nc(N)nc42)SCC(N(C)C(C)=O)C3)c1C (stereo not drawn) [Example 99, N-{4-Amino-2-[(4-methoxy-3,5-dimethylpyridin-2-yl)methyl]-2,7,8,9-tetrahydro-6-thia-1,2,3,5-tetraazabenzo[cd]azulen-8-yl}-N-methylacetamide]",,,,
38,71,6.20,"COc1c(C)cnc(Cn2nc3c4c(nc(N)nc42)SCC(CC(=O)N2CCC2)=C3)c1C [Example 123, 8-(2-Azetidin-1-yl-2-oxoethyl)-2-[(4-methoxy-3,5-dimethylpyridin-2-yl)methyl]-2,7-dihydro-6-thia-1,2,3,5-tetraazabenzo[cd]azulen-4-amine]",,,,
2600,5900,5.72,Nc1nc2c3c(nn(Cc4cc5ccccc5cn4)c3n1)CCS2 [Example 153],,,,
148,224,6.00,"COc1c(C)cnc(Cn2nc3c4c(nc(N)nc42)SCC3)c1C [Example 2, 2-[(4-Methoxy-3,5-dimethylpyridin-2-yl)methyl]-7,8-dihydro-2H-6-thia-1,2,3,5-tetraazaacenaphthylen-4-amine]",,,,
77,194,6.13,"COc1c(C)cnc(Cn2nc3c4c(nc(N)nc42)SCC(CC(N)=O)=C3)c1C [Example 115, 2-{4-Amino-2-[(4-methoxy-3,5-dimethylpyridin-2-yl)methyl]-2,7-dihydro-6-thia-1,2,3,5-tetraazabenzo[cd]azulen-8-yl}acetamide]",,,,
137,159,5.92,"CNC(=O)C1Cc2nn(Cc3ncc(C)c(OC)c3C)c3nc(N)nc(c23)S1 (stereo not drawn) [Example 9, 4-Amino-2-[(4-methoxy-3,5-dimethylpyridin-2-yl)methyl]-N-methyl-7,8-dihydro-2H-6-thia-1,2,3,5-tetraazaacenaphthylene-7-carboxamide]",,,,
150,460,5.66,"COc1c(C)cnc(Cn2nc3c4c(nc(N)nc42)SC(C(=O)NC2CC2)C3)c1C (stereo not drawn) [Example 12, 4-Amino-N-cyclopropyl-2-[(4-methoxy-3,5-dimethylpyridin-2-yl)methyl]-7,8-dihydro-2H-6-thia-1,2,3,5-tetraazaacenaphthylene-7-carboxamide]",,,,
91,253,5.85,"COc1c(C)cnc(Cn2nc3c4c(nc(N)nc42)SCC(NC(C)=O)C3)c1C (stereo not drawn) [Example 43, N-{4-Amino-2-[(4-methoxy-3,5-dimethylpyridin-2-yl)methyl]-2,7,8,9-tetrahydro-6-thia-1,2,3,5-tetraazabenzo[cd]azulen-8-yl}acetamide]",,,,
6800,16000,5.70,"Cn1c(=O)c(Cn2nc3c4c(nc(N)nc42)SCC3)cc2ccccc21 [Example 165, 3-[(4-Amino-7,8-dihydro-2H-6-thia-1,2,3,5-tetraazaacenaphthylen-2-yl)methyl]-1-methylquinolin-2(1H)-one]",,,,

Compound,"GI50 [1, 4] [nM]","GI50 [2, 5] [nM]",pIC50 [3],"GI50 ([1]; Homo sapiens, SK-BR-3, 72 h) [nM]","GI50 ([2]; Homo sapiens, NCI-H460, 72 h) [nM]","GI50 ([1]; SK-BR-3, MTT assay, 72 hours) [nM]","GI50 ([2]; NCI-H460, MTT assay, 72 hours) [nM]"
"COc1c(C)cnc(Cn2nc3c4c(nc(N)nc42)SCC(CCN2CCCC2)=C3)c1C [Example 141, 2-[(4-Methoxy-3,5-dimethylpyridin-2-yl)methyl]-8-(2-pyrrolidin-1-ylethyl)-2,7-dihydro-6-thia-1,2,3,5-tetraazabenzo[cd]azulen-4-amine]",,,6.00,41,260,,
"COc1c(C)cnc(Cn2nc3c4c(nc(N)nc42)SCC(c2cccnc2)=C3)c1C [Example 223, 2-[(4-Methoxy-3,5-dimethylpyridin-2-yl)methyl]-8-pyridin-3-yl-2,7-dihydro-6-thia-1,2,3,5-tetraazabenzo[cd]azulen-4-amine]",,,5.96,140,250,,
"N^8-(S)-Cyclopropyl-2-[(4-methoxy-3,5-dimethylpyridin-2-yl)methyl]-2,7,8,9-tetrahydro-6-thia-1,2,3,5-tetraazabenzo[cd]azulene-4,8-diamine [Example 181]",,,5.51,,,45,76
"COc1c(C)cnc(Cn2nc3c4c(nc(N)nc42)SC=C3)c1C [Example 151, 2-[(4-Methoxy-3,5-dimethylpyridin-2-yl)methyl]-2H-6-thia-1,2,3,5-tetraazaacenaphthylen-4-amine]",,,6.05,48,110,,
